Data taken from EPA's ToxRefDB 2.

Key:
rat [1] = settings: Fertility (Segment I), sprague dawley, Injection, Intraperitoneal, dose end: 7 GD
rat [2] = settings: Sub-acute repeat dose toxicity, sprague dawley, Injection, Intraperitoneal, dose end: 30 day, group: systemic
rat [3] = settings: Prenatal developmental toxicity study, sprague dawley, Oral, Gavage/Intubation, dose end: 15 GD
rat [4] = settings: Combined chronic toxicity/carcinogenicity, sprague dawley, Oral, Feed, dose end: 104 week, group: systemic
rat [5] = settings: Subchronic oral toxicity in rodents, sprague dawley, Feed, dose end: 90 day, group: systemic, systemic / in life observation / body weight / body weight + systemic / in life observation / body weight / body weight gain + systemic / in…
rat [6] = settings: Multigenerational reproductive toxicity study, sprague dawley, Oral, Feed, dose end: 2 generation
dog [7] = settings: Chronic toxicity; beagle; Oral; Feed; dose end: 52 week; group: systemic; systemic / pathology microscopic / liver / degeneration + systemic / pathology microscopic / liver / hyperplasia + systemic / pathology …
primate = settings: Subchronic oral toxicity in nonrodent, macaque, Gavage/Intubation, dose end: 28 day, group: systemic, systemic / clinical chemistry / [other] / [other] + systemic / in life observation / clinical signs / emesis + systemic / in life …
rat [8] = settings: Sub-acute repeat dose toxicity, sprague dawley, Oral, Gavage/Intubation, dose end: 28 day, group: systemic
rat [9] = settings: Chronic toxicity, sprague dawley, Oral, Gavage/Intubation, dose end: 26 week, group: systemic
rat [10] = settings: Subchronic oral toxicity in rodents, fischer, Feed, dose end: 13 week, group: systemic, systemic / hematology / erythrocyte (rbc) count differential / erythrocyte (rbc) + systemic / hematology / hematocrit (hct) / hematocrit (…
dog [11] = settings: Sub-acute repeat dose toxicity, beagle, Injection, Intravenous, dose end: 1 month, group: systemic
rat [12] = settings: Subchronic oral toxicity in rodents, fischer, Feed, dose end: 90 day
mouse [13] = settings: Carcinogenicity, cd1, Oral, Feed, dose end: 78 week, group: systemic
mouse [14] = settings: Subchronic oral toxicity in rodents, b6c3f1, Feed, dose end: 13 week, group: systemic
rat [15] = settings: Subchronic oral toxicity in rodents, fischer, Feed, dose end: 13 week, group: systemic
mouse [16] = settings: Carcinogenicity; b6c3f1; Oral; Feed; dose end: 2 year; group: systemic; systemic / in life observation / body weight / body weight
rat [17] = settings: Carcinogenicity; fischer; Oral; Feed; dose end: 2 year; group: systemic; systemic / pathology microscopic / skin / keratoacanthoma
rat [18] = settings: Subchronic oral toxicity in rodents, other, Feed, dose end: 15 week, group: cholinesterase
dog [19] = settings: Subchronic oral toxicity in nonrodent, beagle, Feed, dose end: 13 week
[20] = group: maternal, reproductive / reproductive performance / implantations / implantations + reproductive / reproductive performance / preimplantation loss / …
[21] = group: parental, systemic / in life observation / body weight / body weight gain + systemic / organ weight / ovary / absolute + systemic / organ weight / …
[22] = systemic / clinical chemistry / creatinine / creatinine + systemic / in life observation / food consumption / food consumption + systemic / …
[23] = systemic / pathology microscopic / ovary / follicle count + systemic / in life observation / body weight / body weight
[24] = group: developmental, developmental / developmental malformation / bone / unossified
[25] = group: maternal, systemic / in life observation / clinical signs / drooping eyelids (ptosis) + systemic / in life observation / clinical signs / salivation…
[26] = systemic / in life observation / body weight / body weight + systemic / in life observation / body weight / body weight gain
[27] = systemic / in life observation / body weight / body weight + systemic / in life observation / body weight / body weight gain + systemic / …
[28] = group: offspring, systemic / in life observation / body weight / offspring (pup) weight + systemic / in life observation / body weight / offspring (pup) …
[29] = group: parental, systemic / in life observation / body weight / body weight + systemic / in life observation / body weight / body weight gain
[30] = systemic / clinical chemistry / alanine aminotransferase (alt/sgpt) / alanine aminotransferase (alt/sgpt) + systemic / clinical chemistry / …
[31] = systemic / hematology / platelet / platelet + systemic / in life observation / clinical signs / salivation
[32] = systemic / clinical chemistry / alanine aminotransferase (alt/sgpt) / alanine aminotransferase (alt/sgpt) + systemic / in life observation…
[33] = systemic / clinical chemistry / [other] / [other] + systemic / hematology / erythrocyte (rbc) count differential / erythrocyte (rbc) + …
[34] = systemic / urinalysis / potassium / potassium + systemic / urinalysis / sodium / sodium
[35] = group: cholinesterase, cholinesterase / cholinesterase / cholinesterase / brain cholinesterase (che)
[36] = group: cholinesterase, cholinesterase / cholinesterase / cholinesterase / brain cholinesterase (che) + cholinesterase / cholinesterase / cholinesterase / …
[37] = group: systemic, systemic / hematology / erythrocyte (rbc) count differential / erythrocyte (rbc) + systemic / hematology / hematocrit (hct) / hematocrit (…
[38] = group: systemic, systemic / hematology / mean corpuscular hemoglobin concentration (mchc) / mean corpuscular hemoglobin concentration (mchc)
[39] = systemic / in life observation / body weight / body weight gain + systemic / in life observation / food consumption / food efficiency + …
[40] = systemic / in life observation / body weight / body weight
[41] = systemic / in life observation / body weight / body weight + systemic / in life observation / mortality / mortality + systemic / pathology …
[42] = systemic / in life observation / body weight / body weight + systemic / in life observation / food consumption / food consumption + systemic…
[43] = cholinesterase / cholinesterase / cholinesterase / erythrocyte cholinesterase (che)
[44] = cholinesterase / cholinesterase / cholinesterase / erythrocyte cholinesterase (che) + cholinesterase / cholinesterase / cholinesterase / …
[45] = group: cholinesterase, cholinesterase / cholinesterase / cholinesterase / erythrocyte cholinesterase (che) + cholinesterase / cholinesterase / cholinesterase / …
[46] = group: systemic, systemic / in life observation / clinical signs / [other]

## C1CC2OC2CC1C1CO1 (stereo not given) [4-Vinyl-1-cyclohexene dioxide]
Rat [1]; [20]
  LEL: 80 mg/kg/day
  LOAEL: > 80 mg/kg/day
  NEL: 20 mg/kg/day
  NOAEL: ≥ 80 mg/kg/day
Rat [1]; [21]
  LEL: 80 mg/kg/day
  LOAEL: > 80 mg/kg/day
  NEL: 20 mg/kg/day
  NOAEL: ≥ 80 mg/kg/day
Rat [2]; [22]
  LOAEL: > 80 mg/kg/day
  NOAEL: ≥ 80 mg/kg/day
Rat [2]; [23]
  LEL: 40 mg/kg/day
  NEL: < 40 mg/kg/day

## CCNc1nc(NC(C)C)nc(SC)n1 [Ametryn]
Rat [3]; [24]
  LEL: 50 mg/kg/day
  LOAEL: > 250 mg/kg/day
  NEL: 5 mg/kg/day
  NOAEL: ≥ 250 mg/kg/day
Rat [3]; group: maternal, systemic / in life observation / clinical signs / drooping eyelids (ptosis) + systemic / in life observation / clinical signs / salivation
  LOAEL: 50 mg/kg/day
Rat [3]; [25]
  LEL: 50 mg/kg/day
  NEL: 5 mg/kg/day
  NOAEL: 5 mg/kg/day
Rat [4]; [26]
  LEL: 20.9 mg/kg/day
  LOAEL: 20.9 mg/kg/day
Rat [4]; [27]
  NEL: 2 mg/kg/day
  NOAEL: 2 mg/kg/day
Rat [5]
  LEL: 36.1 mg/kg/day
  LOAEL: 36.1 mg/kg/day
  NEL: 7.4 mg/kg/day
  NOAEL: 7.4 mg/kg/day
Rat [6]; [28]
  LEL: 131 mg/kg/day
  LOAEL: 131 mg/kg/day
  NEL: 13 mg/kg/day
  NOAEL: 13 mg/kg/day
Rat [6]; [29]
  LEL: 131 mg/kg/day
  LOAEL: 131 mg/kg/day
  NEL: 13 mg/kg/day
  NOAEL: 13 mg/kg/day
Dog [7]
  LEL: 70 mg/kg/day
  LOAEL: 70 mg/kg/day
  NEL: 7.2 mg/kg/day
  NOAEL: 7.2 mg/kg/day

## CCCCN1C(=O)[C@@H]([C@H](O)C2CCCCC2)NC(=O)C12CCN(Cc1ccc(Oc3ccc(C(=O)O)cc3)cc1)CC2.Cl [Aplaviroc hydrochloride]
primate
  LEL: 30 mg/kg/day
  LOAEL: > 1000 mg/kg/day
  NEL: < 30 mg/kg/day
  NOAEL: ≥ 1000 mg/kg/day
Rat [8]; [30]
  LOAEL: > 1000 mg/kg/day
  NOAEL: ≥ 1000 mg/kg/day
Rat [8]; [31]
  LEL: 30 mg/kg/day
  NEL: < 30 mg/kg/day
Rat [9]; [30]
  LOAEL: > 750 mg/kg/day
  NOAEL: ≥ 750 mg/kg/day
Rat [9]; [32]
  LEL: 100 mg/kg/day
  NEL: < 100 mg/kg/day

## O=C(O)c1cc(O)c(O)c(O)c1 [Gallic acid]
Rat [10]
  LEL: 300 mg/kg/day
  LOAEL: 300 mg/kg/day
  NEL: 100 mg/kg/day
  NOAEL: 100 mg/kg/day

## CN(C)c1ccc(O)c2c1C[C@H]1C[C@H]3[C@H](N(C)C)C(=O)C(C(N)=O)=C(O)[C@@]3(O)C(=O)C1=C2O [Minocycline]
Dog [11]; [33]
  LOAEL: > 40 mg/kg/day
  NOAEL: ≥ 40 mg/kg/day
Dog [11]; [34]
  LEL: 5 mg/kg/day
  NEL: < 5 mg/kg/day

## COC(=O)Nc1cccc(OC(=O)Nc2cccc(C)c2)c1 [Phenmedipham]
Rat [12]; [35]
  LEL: 3.5 mg/kg/day
  NEL: < 3.5 mg/kg/day
Rat [12]; [36]
  LOAEL: > 366 mg/kg/day
  NOAEL: ≥ 366 mg/kg/day
Rat [12]; [37]
  LOAEL: 35.4 mg/kg/day
  NOAEL: 3.5 mg/kg/day
Rat [12]; [38]
  LEL: 3.5 mg/kg/day
  NEL: < 3.5 mg/kg/day
Mouse [13]; systemic / in life observation / body weight / body weight gain + systemic / in life observation / food consumption / food efficiency
  LOAEL: 1070 mg/kg/day
Mouse [13]; [39]
  NEL: 75 mg/kg/day
  NOAEL: 302 mg/kg/day
Mouse [13]; systemic / pathology gross / spleen / enlarged + systemic / pathology microscopic / adrenal gland / amyloid deposition + systemic / …
  LEL: 302 mg/kg/day

## CCNc1cc2oc3cc(=[NH+]CC)c(C)cc-3c(-c3ccccc3C(=O)OCC)c2cc1C.[Cl-] [Rhodamine 6G]
Mouse [14]; [40]
  LEL: 300 mg/kg/day
  NEL: 150 mg/kg/day
Mouse [14]; [41]
  LOAEL: > 1200 mg/kg/day
  NOAEL: ≥ 1200 mg/kg/day
Rat [15]; [42]
  LOAEL: > 100 mg/kg/day
  NEL: 12.5 mg/kg/day
  NOAEL: ≥ 100 mg/kg/day
Rat [15]; systemic / in life observation / body weight / body weight + systemic / pathology microscopic / bone marrow / atrophy
  LEL: 25 mg/kg/day
Mouse [16]
  LEL: 125 mg/kg/day
  LOAEL: 125 mg/kg/day
  NEL: < 125 mg/kg/day
  NOAEL: < 125 mg/kg/day
Rat [17]
  LEL: 10 mg/kg/day
  LOAEL: > 10 mg/kg/day
  NEL: 5 mg/kg/day
  NOAEL: ≥ 10 mg/kg/day

## COP(=S)(OC)Oc1ccc(Sc2ccc(OP(=S)(OC)OC)cc2)cc1 [Temephos]
Rat [18]; [43]
  LEL: 0.9 mg/kg/day
  LOAEL: 0.9 mg/kg/day
Rat [18]; [44]
  NEL: 0.3 mg/kg/day
  NOAEL: 0.3 mg/kg/day
Dog [19]; [45]
  LEL: 12.5 mg/kg/day
  LOAEL: 12.5 mg/kg/day
  NEL: 0.46 mg/kg/day
  NOAEL: 0.46 mg/kg/day
Dog [19]; [46]
  LEL: 12.5 mg/kg/day
  LOAEL: 12.5 mg/kg/day
  NEL: 0.46 mg/kg/day
  NOAEL: 0.46 mg/kg/day
